Test results from ChEMBL document CHEMBL1155085, “Propindilactones E-J, Schiartane Nortriterpenoids from Schisandra propinqua var. propinqua” (J Nat Prod, 2008).

Experiments:
Type in all cases: functional, cell-based
[1] = tested on: HT-29; test: Cytotoxicity against human HT29 cells after 72 hrs by sulforhodamine B assay; conditions: HT-29, 72 h
[2] = tested on: K562; test: Cytotoxicity against human K562 cells after 72 hrs by sulforhodamine B assay; conditions: K562, 72 h
[3] = tested on: A549; test: Cytotoxicity against human A549 cells after 72 hrs by sulforhodamine B assay; conditions: A549, 72 h

Measured: IC50

CC(=O)O[C@@H]1C[C@]2(O)CC[C@]34OC(=O)C[C@H]3OC(C)(C)[C@@H]4C[C@H]2[C@]23O[C@H]2C[C@H]([C@@H](C)[C@H]2CC=C(C)C(=O)O2)[C@@]13C [PRPINDILACETONES J]
> 100 µM: all assays above

C[C@@H]([C@@H](O)[C@@H]1C[C@@H](C)C(=O)O1)[C@H]1[C@@H](O)[C@H](O)[C@]2(O)[C@@H]3C[C@H]4C(C)(C)O[C@@H]5CC(=O)O[C@@]54CC[C@@]3(O)CC[C@]12C [PRPINDILACETONES H]
> 100 µM: all assays above

C[C@@H]([C@@H](O)[C@@H]1C[C@@H](C)C(=O)O1)[C@H]1C[C@H](O)[C@]2(O)[C@@H]3C[C@H]4C(C)(C)O[C@@H]5CC(=O)O[C@@]54CC[C@@]3(O)CC[C@]12C [PRPINDILACETONES I]
> 100 µM: all assays above
